The ΔTm is the change in melting temperature against a reference sample.

Here are results for three molecules from article PMC9268153 (2022).

Where only a bound is given, the exact number is not on record here.

Experiment [1] concerns ds-oligo (DNA, duplex) GGGAGGTTTCGC/GCGAAACCTCCC
Briefly: ITC. The settings on record: 50 mM potassium phosphate (K+); 50 mM KH2PO4-K2HPO4 pH 7.0, 25 °C; undetectable.

For experiment [2], the system named is Telomere G1 (Telomere G4) (DNA, G4) TAGGGTTAGGGTTAGGGTTAGGG
Kind of experiment: ITC. The settings on record: 50 mM potassium phosphate (K+), 50 mM KH2PO4-K2HPO4 pH 7.0, 25 °C; for binding: n.d. (not detected), titrant up to 100 μM.

Experiment [3] has as its system c-myc AP sites (DNA, G4, abasic (d-spacer) at 7 and 16) TGAGGGNGGGGAGGGNGGGGAA
Briefly: ITC. To be noted: 50 mM potassium phosphate (K+); 50 mM KH2PO4-K2HPO4 pH 7.0, 25 °C.

The subject of experiment [4] is G1-r23nt (RNA, G4) UAGGGUUAGGGUUAGGGUUAGGG
Briefly: ITC. To be noted: 50 mM potassium phosphate (K+); 50 mM KH2PO4-K2HPO4 pH 7.0, 25 °C.

For experiment [5], the system named is G1-r12nt (RNA, G4) UAGGGUUAGGGU
Briefly: ITC. To be noted: 50 mM potassium phosphate (K+); 50 mM KH2PO4-K2HPO4 pH 7.0, 25 °C.

Experiment [6] deals with Telomere G1 (Telomere G4) (DNA, G4) TAGGGTTAGGGTTAGGGTTAGGG
Kind of experiment: CD melting. To be noted: 100 mM KCl; 50 mM Tris-HCl pH 7.4; 4.5 μM compound, 1.5 μM nucleic acid.

Experiment [7] relates to G1-r23nt (RNA, G4) UAGGGUUAGGGUUAGGGUUAGGG
Briefly: CD melting. To be noted: 5 mM KCl; 50 mM Tris-HCl pH 7.4; 4.5 μM compound, 1.5 μM nucleic acid.

The subject of experiment [8] is G1-r12nt (RNA, G4) UAGGGUUAGGGU
Briefly: CD melting. The settings on record: 100 mM KCl; 50 mM KH2PO4-K2HPO4 pH 7.0; 4.5 μM compound, 1.5 μM nucleic acid.

For experiment [9], the system named is c-kit (DNA, G4) AGGGAGGGCGCTGGGAGGAGGG
Briefly: CD spectral change. The settings on record: 100 mM KCl; 50 mM Tris-HCl pH 7.4, 25 °C; 1.5 μM DNA, up to 4.5 μM compound.

Experiment [10] has as its system ds-oligo (DNA, duplex) GGGAGGTTTCGC/GCGAAACCTCCC
Kind of experiment: UV-Vis titration, Scatchard. To be noted: 100 mM KCl; 50 mM Tris-HCl pH 7.4, 25 °C.

In experiment [11] the test system is Telomere G1 (Telomere G4) (DNA, G4) TAGGGTTAGGGTTAGGGTTAGGG
Kind of experiment: UV-Vis titration, Scatchard. The settings on record: 100 mM KCl; 50 mM Tris-HCl pH 7.4, 25 °C.

Regarding `O=C(CN1C(=O)c2ccc3c4c(ccc(c24)C1=O)C(=O)N(CC(=O)NCCNC[C@H]1O[C@@H]2O[C@H]4[C@H](O)[C@@H](O)[C@@H](O[C@H]5[C@H](O)[C@@H](O)[C@@H](O[C@H]6[C@H](O)[C@@H](O)[C@@H](O[C@H]7[C@H](O)[C@@H](O)[C@@H](O[C@H]8[C@H](O)[C@@H](O)[C@@H](O[C@H]9[C@H](O)[C@@H](O)[C@@H](O[C@H]1[C@H](O)[C@H]2O)O[C@@H]9CO)O[C@@H]8CO)O[C@@H]7CO)O[C@@H]6CO)O[C@@H]5CO)O[C@@H]4CO)C3=O)NCCNC[C@H]1O[C@@H]2O[C@H]3[C@H](O)[C@@H](O)[C@@H](O[C@H]4[C@H](O)[C@@H](O)[C@@H](O[C@H]5[C@H](O)[C@@H](O)[C@@H](O[C@H]6[C@H](O)[C@@H](O)[C@@H](O[C@H]7[C@H](O)[C@@H](O)[C@@H](O[C@H]8[C@H](O)[C@@H](O)[C@@H](O[C@H]1[C@H](O)[C@H]2O)O[C@@H]8CO)O[C@@H]7CO)O[C@@H]6CO)O[C@@H]5CO)O[C@@H]4CO)O[C@@H]3CO`, the binding result in experiment [1] is on record as “no”; in experiment [2] it was “no”; in [5], “yes”. Moreover, the values for the Ka in [3] and in experiment [4] were 2.0 ± 0.8 × 10^5 M^-1 and 12.3 ± 2.2 × 10^5 M^-1, respectively. Besides, the ΔTm in [6] is < 0.5 °C; in experiment [7] it was 10.6 ± 0.6 °C; in experiment [8] it was < 0.5 °C.
Consider `CN(CCCN1C(=O)c2ccc3c4c(ccc(c24)C1=O)C(=O)N(CCCN(C)C[C@H]1O[C@@H]2O[C@H]4[C@H](O)[C@@H](O)[C@@H](O[C@H]5[C@H](O)[C@@H](O)[C@@H](O[C@H]6[C@H](O)[C@@H](O)[C@@H](O[C@H]7[C@H](O)[C@@H](O)[C@@H](O[C@H]8[C@H](O)[C@@H](O)[C@@H](O[C@H]9[C@H](O)[C@@H](O)[C@@H](O[C@H]1[C@H](O)[C@H]2O)O[C@@H]9CO)O[C@@H]8CO)O[C@@H]7CO)O[C@@H]6CO)O[C@@H]5CO)O[C@@H]4CO)C3=O)C[C@H]1O[C@@H]2O[C@H]3[C@H](O)[C@@H](O)[C@@H](O[C@H]4[C@H](O)[C@@H](O)[C@@H](O[C@H]5[C@H](O)[C@@H](O)[C@@H](O[C@H]6[C@H](O)[C@@H](O)[C@@H](O[C@H]7[C@H](O)[C@@H](O)[C@@H](O[C@H]8[C@H](O)[C@@H](O)[C@@H](O[C@H]1[C@H](O)[C@H]2O)O[C@@H]8CO)O[C@@H]7CO)O[C@@H]6CO)O[C@@H]5CO)O[C@@H]4CO)O[C@@H]3CO`, for which the binding result was “no” in experiment [1], “no” in experiment [2] and “yes” in experiment [5]. The Ka is 2.2 ± 0.3 × 10^5 M^-1 in experiment [3] and 19.0 ± 2.2 × 10^5 M^-1 in experiment [4]. Also, the ΔTm in experiment [6] was < 0.5 °C; in experiment [7] it was 10.3 ± 0.3 °C; in experiment [8], 2.1 ± 0.9 °C.
In the case of `CN(C)CCCN1C(=O)c2ccc3c4c(ccc(c24)C1=O)C(=O)N(CCCN(C)C)C3=O`, the Ka is given as 9.5 ± 0.6 × 10^5 M^-1 in [2], 2.9 ± 0.2 × 10^5 M^-1 in [3], 3.9 ± 0.1 × 10^5 M^-1 in experiment [10] and 9.5 ± 0.9 × 10^5 M^-1 in experiment [11]. Further, the ΔTm in experiment [6] was determined as 5.1 ± 1.1 °C; in [7], 19.9 ± 0.1 °C; in experiment [8], 6.1 ± 0.4 °C. Further, in [9], the binding entry is reported as “yes”.
